In patent EP4763839A1 (Pamplona Therapeutics (Shenzhen) Co., Ltd., priority 2023, dated 2025) one finds IC50, DC50 and Dmax data, which are given here for 32 compounds.

Where two headings read alike, the source gives them in different places.

The target of assay [1] is T1, IRAK4 (Homo sapiens, UniProt Q9NWZ3).
T1 sequence (Q9NWZ3 1-460): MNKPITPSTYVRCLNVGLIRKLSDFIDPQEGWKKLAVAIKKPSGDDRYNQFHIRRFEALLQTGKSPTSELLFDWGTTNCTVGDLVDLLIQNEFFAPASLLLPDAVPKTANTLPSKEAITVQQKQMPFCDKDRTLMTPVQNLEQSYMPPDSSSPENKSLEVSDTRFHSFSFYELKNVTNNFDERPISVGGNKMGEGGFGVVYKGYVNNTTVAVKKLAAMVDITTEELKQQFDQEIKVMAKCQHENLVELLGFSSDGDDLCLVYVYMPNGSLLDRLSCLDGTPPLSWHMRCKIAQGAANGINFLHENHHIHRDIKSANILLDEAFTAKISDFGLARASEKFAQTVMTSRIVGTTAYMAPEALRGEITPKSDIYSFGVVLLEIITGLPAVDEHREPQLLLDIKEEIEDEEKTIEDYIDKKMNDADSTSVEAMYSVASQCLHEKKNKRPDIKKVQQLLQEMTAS
The assay can be described thus: Assay for inhibitory effect of compound on IRAK4 kinase activity (KinEASE-STK S1 HTRF kit). The assay is classed as biochemical. Here is the method:
Example 1: Kinase activity assay
Assay for inhibitory effect of compound on IRAK4 kinase activity
The inhibitory effect of the compound on IRAK4 kinase activity was measured using the KinEASE-STK S1 serine/threonine kinase kit (Cisbio). The specific method was as follows: the compound was dissolved in dimethyl sulfoxide and then subjected to 3-fold serial dilution in dimethyl sulfoxide, yielding final test compound concentrations in the reaction system ranging from 5,000 nM to 0.0254 nM. The kinase at a final concentration of 8 nM was added, followed by incubation at rt for 15 minutes. Subsequently, biotinylated STK1 substrate at a final concentration of 400 nM and adenosine triphosphate (ATP) at a final concentration of 80 µM were sequentially added, and the mixture was incubated at 37°C for 90 minutes. Then, the reaction was terminated by adding an anti-phosphoserine/threonine antibody conjugated with a europium cryptate and streptavidin-conjugated XL665 to the reaction system. After incubation at rt for 1 hour, the fluorescence intensity at emission wavelengths of 620 nm and 665 nm for each well was measured using an EnVision microplate reader (PerkinElmer) in HTRF mode. The ratio value was calculated using the formula: Ratio = (665 nm/620 nm)×10^4 The inhibition rate of the compound at each concentration was calculated using the formula: Inhibition% = [1-(Signal sample-Signal min)/(Signal max-Signal min)]×100. Subsequently, the dose-response curve was fitted by nonlinear curve fitting of log concentration versus inhibition rate using Fit Modela (205) in XLfit to give the IC50 value of the compound for inhibition of protein activity.

Assay [2] has as its target T1, IRAK4. The assay can be described thus: Degradation of IRAK4 in THP1 cells, Western blot. The format is cell-based. The arrangement: Degradation of IRAK4 in THP1 by compound; host or cells: THP-1. The following applies: THP-1 cells, 24 hours of incubation; for DC50: IRAK4 protein by Western blot, read-out: DC50; for Dmax: maximum degradation rate, read-out: Dmax. Summed up:
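THP1 cells treated 24 h, lysed; lysates normalised by BCA, 40 μg protein per lane on 10% SDS-PAGE, anti-IRAK4 Western blot with chemiluminescence detection.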

[3] abbreviates: kinase 8 nM, ATP 80 µM, 37°C 90 minutes, read-out: IRAK4 HTRF IC50.

Regarding `NS(=O)(=O)c1nn(C2CCC2)cc1NC(=O)c1ccn2ncc(-c3ccn[nH]3)c2n1` [Compound A278, N-(1-cyclobutyl-3-sulfonamide-1H-pyrazol-4-yl)-3-(1H-pyrazol-5-yl)pyrazolo[1,5-a]pyrimidine-5-carboxamide], the IC50 in assay [1] was < 0.1 µM.

As for `CNC1CC(c2nn(-c3ccccc3)cc2NC(=O)c2cccc(C(F)(F)F)n2)C1` (stereo not shown) [Compound A44, N-(3-(3-(Methylamino)cyclobutyl)-1-phenyl-1H-pyrazol-4-yl)-6-(trifluoromethyl)picolinamide], the IC50 in assay [1] (setting [3]) is > 1 µM.

`O=C(Nc1cn(-c2ccccc2)nc1C1CCN1)c1cccc(-c2ccn[nH]2)n1` (stereo not shown) [Compound A245, N-(3-(Azetidin-2-yl)-1-phenyl-1H-pyrazol-4-yl)-6-(1H-pyrazol-5-yl)picolinamide]: in assay [1] (setting [3]), the IC50 is > 1 µM.

`NS(=O)(=O)c1cn(-c2ccccc2)nc1NC(=O)c1cccc(C(F)(F)F)n1` [Compound A59, N-(1-phenyl-4-sulfamoyl-1H-pyrazol-3-yl)-6-(trifluoromethyl)picolinamide]: the IC50 in assay [1] (setting [3]) was > 1 µM.

In the case of `NC(=O)c1oc(-c2ccccc2)nc1NC(=O)c1cccc(C(F)(F)F)n1` [Compound A57, 2-Phenyl-4-(6-(trifluoromethyl)picolinamido)oxazole-5-carboxamide], the IC50 in assay [1] (setting [3]) was > 1 µM.

As to `NC(=O)c1nn(-c2ccc(CO)cc2)cc1NC(=O)c1cccc(C(F)(F)F)n1` [Compound A18], the IC50 in assay [1] (setting [3]) was 0.1 to 1 µM.

For `CC(C)(O)c1nn(-c2ccccc2)cc1NC(=O)c1ccc2cc(C#N)cnn12` [Compound A232, 3-Cyano-N-(3-(2-hydroxypropan-2-yl)-1-phenyl-1H-pyrazol-4-yl)pyrrolo[1,2-b]pyridazine-7-carboxamide], the IC50 in assay [1] (setting [3]) is < 0.1 µM.

Turning to `NS(=O)(=O)c1nn(C2CCCCC2)cc1NC(=O)c1cccc(-c2ccn[nH]2)n1` [Compound A260, N-(1-Cyclohexyl-3-sulfamoyl-1H-pyrazol-4-yl)-6-(1H-pyrazol-5-yl)picolinamide], the IC50 in assay [1] (setting [3]) is < 0.1 µM.

With `NC(=O)c1nc(-c2ccccc2)[nH]c1NC(=O)c1cccc(C(F)(F)F)n1` [Compound A54], in assay [1] (setting [3]), the IC50 is > 1 µM.

Turning to `CC(=O)NCc1ccc(-n2cc(NC(=O)c3cccc(C(F)(F)F)n3)c(C(N)=O)n2)cc1` [Compound A23], the IC50 in assay [1] (setting [3]) was < 0.1 µM.

Consider `[C-]#[N+]c1cnn2c(C(=O)Nc3cn(-c4ccccc4)nc3OC)ccc2c1` [Compound A234, 3-Isocyano-N-(3-methoxy-1-phenyl-1H-pyrazol-4-yl)pyrrolo[1,2-b]pyridazine-7-carboxamide], for which the IC50 in assay [1] (setting [3]) was < 0.1 µM.

Regarding `CN(C)Cc1ccc(-n2cc(NC(=O)c3cccc(C(F)(F)F)n3)c(C(N)=O)n2)cc1` [Compound A22], in assay [1] (setting [3]), the IC50 is < 0.1 µM.

With `CC(F)(F)c1cccc(C(=O)Nc2cn(-c3ccccc3)nc2C(N)=O)n1` [Compound A264], the IC50 in assay [1] (setting [3]) lay in the range of 0.1 to 1 µM.

Turning to `O=C(Nc1cn(-c2ccccc2)nc1C1CCC1)c1cccc(C(F)(F)F)n1` [Compound A72, N-(3-cyclobutyl-1-phenyl-1H-pyrazol-4-yl)-6-(trifluoromethyl)picolinamide], the IC50 in assay [1] (setting [3]) was > 1 µM.

Regarding `NC(=O)c1nn(-c2cnc(Br)cn2)cc1NC(=O)c1cccc(C(F)(F)F)n1` [Compound A2], the IC50 in assay [1] (setting [3]) is > 1 µM.

Take `NC(=O)c1cc(-c2ccccc2)oc1NC(=O)c1cccc(C(F)(F)F)n1` [Compound A53]: in assay [1] (setting [3]), the IC50 was > 1 µM.

For `CS(=N)(=O)c1nn(-c2ccccc2)cc1NC(=O)c1cccc(-c2cn[nH]c2)n1` (stereo not shown) [Compound A97, N-(3-(S-methylsulfonimidoyl)-1-phenyl-1H-pyrazol-4-yl)-6-(1H-pyrazol-4-yl)picolinamide], the IC50 in assay [1] (setting [3]) was < 0.1 µM.

In the case of `NS(=O)(=O)c1nn(-c2ccccc2)cc1NC(=O)c1cccc(-n2ccnc2)n1` [Compound A261, 6-(1H-Imidazol-1-yl)-N-(1-phenyl-3-sulfamoyl-1H-pyrazol-4-yl)picolinamide], the IC50 in assay [1] (setting [3]) is < 0.1 µM.

For `NC(=O)c1nn(C2CC(N)C2)cc1NC(=O)c1cccc(C(F)(F)F)n1` (stereo not shown) [Compound A32], the IC50 in assay [1] (setting [3]) is < 0.1 µM.

Turning to `N#Cc1nn(-c2ccccc2)cc1NC(=O)c1cccc(C(F)(F)F)n1` [Compound A64, N-(3-cyano-1-phenyl-1H-pyrazol-4-yl)-6-(trifluoromethyl)picolinamide], in assay [1] (setting [3]), the half-inhibitory concentration (IC50) is > 1 µM.

`NS(=O)(=O)c1nn(-c2ccccc2)cc1NC(=O)c1cccc(C(F)(F)F)n1` [Compound A62, N-(1-phenyl-3-sulfamoyl-1H-pyrazol-4-yl)-6-(trifluoromethyl)picolinamide]: in assay [1] (setting [3]), the IC50 lay within 0.1 to 1 µM.

As for `O=C(Nc1cn(C2CCC2)nc1C(F)F)c1ccn2ncc(-c3ccn[nH]3)c2n1` [Compound A279, N-(1-cyclobutyl-3-(difluoromethyl)-1H-pyrazol-4-yl)-3-(1H-pyrazol-5-yl)pyrazolo[1,5-a]pyrimidine-5-carboxamide], in assay [1] (setting [3]), the IC50 was 0.1 to 1 µM.

For the compound `CC(=O)Nc1ccc(-n2cc(NC(=O)c3cccc(C(F)(F)F)n3)c(C(N)=O)n2)cc1` [Compound A12], the IC50 in assay [1] (setting [3]) is < 0.1 µM.

As to `CNCc1ccc(-n2cc(NC(=O)c3cccc(C(F)(F)F)n3)c(C(N)=O)n2)cc1` [Compound A21], the IC50 in assay [1] (setting [3]) was < 0.1 µM.

In the case of `NS(=O)(=O)c1nn(-c2ccccc2)cc1NC(=O)c1cccc(-c2cc[nH]c2)n1` [Compound A95, N-(1-phenyl-3-sulfamoyl-1H-pyrazol-4-yl)-6-(1H-pyrrol-3-yl)picolinamide], in assay [1] (setting [3]), the IC50 is < 0.1 µM.

In the case of `CNS(=O)(=O)c1nn(-c2ccccc2)cc1NC(=O)c1cccc(-c2ccn[nH]2)n1` [Compound A248, N-(3-(N-Methylsulfamoyl)-1-phenyl-1H-pyrazol-4-yl)-6-(1H-pyrazol-5-yl)picolinamide], in assay [1] (setting [3]), the IC50 was < 0.1 µM.

In the case of `O=C(Nc1cn(-c2ccccc2)nc1C1CC(O)C1)c1cccc(C(F)(F)F)n1` (stereo not shown) [Compound A65, N-(3-(3-hydroxycyclobutyl)-1-phenyl-1H-pyrazol-4-yl)-6-(trifluoromethyl)picolinamide], the IC50 in assay [1] (setting [3]) is > 1 µM.

With `NC(=O)c1cn(-c2ccc(N3CCN(C4CCN(c5ccc(NC6CCC(=O)NC6=O)cc5F)CC4)CC3)cc2)cc1NC(=O)c1cccc(C(F)(F)F)n1` (stereo not shown) [Compound A428, N-(4-Carbamoyl-1-(4-(4-(1-(4-((2,6-Dioxopiperidin-3-yl)amino)-2-fluorophenyl)piperidin-4-yl)piperazin-1-yl)phenyl)-1H-pyrrol-3-yl)-6-(trifluoromethyl)picolinamide], in assay [2], the DC50 was < 0.1 µM and the Dmax was > 60%.

Turning to `NC(=O)c1nn(-c2ccc(N3CCN(C4CCN(c5ccc(C(=O)NC6CCC(=O)NC6=O)nc5)CC4)CC3)cc2)cc1NC(=O)c1cccc(C(F)(F)F)n1` (stereo not shown) [Compound A379, N-(3-Carbamoyl-1-(4-(4-(1-(6-((2,6-dioxopiperidin-3-yl)carbamoyl)pyridin-3-yl)piperidin-4-yl)piperazin-1-yl)phenyl)-1H-pyrazol-4-yl)-6-(trifluoromethyl)picolinamide], in assay [2], the DC50 is < 0.1 µM and the Dmax is > 60%.

As to `NC(=O)c1nn(-c2ccc(N3CCN(C(=O)C4CN(c5cc(F)c(C6CCC(=O)NC6=O)c(F)c5)C4)CC3)cc2)cc1NC(=O)c1cccc(C(F)(F)F)n1` (stereo not shown) [Compound A411, N-(3-carbamoyl-1-(4-(4-(1-(4-(2,6-dioxopiperidin-3-yl)-3,5-difluorophenyl)azetidine-3-carbonyl)piperazin-1-yl)phenyl)-1H-pyrazol-4-yl)-6-(trifluoromethyl)picolinamide], in assay [2], the DC50 was < 0.1 µM and the Dmax was > 60%.

For `COc1ccc(C(=O)N2CCC(CCN3CCN(c4ccc(-n5cc(NC(=O)c6cccc(-c7ccn[nH]7)n6)c(S(N)(=O)=O)n5)cc4)CC3)CC2)cc1N1CCC(=O)NC1=O` [Compound A324], in assay [2], the DC50 is < 0.1 µM and the Dmax is > 60%.

`NC(=O)c1nn(C2CCC(N3CCN(CC4CCN(c5ccc(NC6CCC(=O)NC6=O)cc5F)CC4)CC3)CC2)cc1NC(=O)c1cccc(C(F)(F)F)n1` (stereo not shown) [Compound A374]: in assay [2], the DC50 is < 0.1 µM and the Dmax was > 60%.
